Reference: patent US20230159538A1, “PYRROLIDINE-PYRAZOLES AS PYRUVATE KINASE ACTIVATORS” (Global Blood Therapeutics, Inc., priority 2020, published 2023)

Biological target: T1, Human pyruvate kinase R (PKR) (Homo sapiens, UniProt P30613)
T1 construct: Human pyruvate kinase R (PKR), residues 14-574; 6x-His (N, cleaved yes); 8x-Arg (N, cleaved yes); SUMO (N, cleaved yes); host or cells: E. coli
Assay: Biochemical assay for activation of pyruvate kinase R (Kinase-Glo luminescence, ATP generation)
Conditions: for AC50: 0.1 nM PKR, 2 mM FBP, 0.3 mM ADP, 0.1 mM PEP; for PKR % activation: maximal activation level relative to the activation level achieved by AG-348 @ 10 μM
Outline: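 E. coli-expressed human PKR, freed of its His-Arg-SUMO tag and purified by anion exchange and size exclusion, was tested for activation. Read-out was luminescent measurement of ATP generation with Kinase-Glo reagent.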

T1 sequence (P30613 14-574): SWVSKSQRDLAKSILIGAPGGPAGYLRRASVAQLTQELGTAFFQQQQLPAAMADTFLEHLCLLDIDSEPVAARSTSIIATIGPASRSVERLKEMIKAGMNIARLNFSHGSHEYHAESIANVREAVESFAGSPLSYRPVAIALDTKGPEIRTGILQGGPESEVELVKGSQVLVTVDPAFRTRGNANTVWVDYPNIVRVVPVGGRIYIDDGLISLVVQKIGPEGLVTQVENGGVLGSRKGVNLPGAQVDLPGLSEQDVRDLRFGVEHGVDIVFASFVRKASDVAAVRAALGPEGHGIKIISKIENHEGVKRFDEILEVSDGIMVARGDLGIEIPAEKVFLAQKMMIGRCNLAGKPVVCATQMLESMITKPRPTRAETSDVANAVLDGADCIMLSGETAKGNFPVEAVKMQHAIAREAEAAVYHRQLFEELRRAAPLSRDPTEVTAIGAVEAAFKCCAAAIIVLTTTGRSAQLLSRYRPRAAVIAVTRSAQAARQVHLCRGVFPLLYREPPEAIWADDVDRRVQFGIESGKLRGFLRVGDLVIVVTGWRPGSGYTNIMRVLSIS

Compound	AC50	PKR % activation
O=C(C(CO)c1ccccc1Cl)N1Cc2cn(S(=O)(=O)c3cnc4c(c3)OCCO4)nc2C1 (single isomer, unassigned) [Compound 71, (2S,3R)-2-(2-chlorophenyl)-1-(2-[2H,3H[1,4]dioxino[2,3-b]pyridine-7-sulfonyl]-4H,6H-pyrrolo[3,4-c]pyrazol-5-yl)-3-hydroxybutan-1-one or (2R,3R)-2-(2-chlorophenyl)-1-(2-[2H,3H-[1,4]dioxino[2,3-b]pyridine-7-sulfonyl]-4H,6H-pyrrolo[3,4-c]pyrazol-5-yl)-3-hydroxybutan-1-one]	8.9 nM	–
C[C@@H](O)[C@H](C(=O)N1Cc2cn(S(=O)(=O)c3ccc4ncsc4c3)nc2C1)c1ccccc1 [Compound 4]	1810 nM	100%
O=C([C@H](CO)c1ccccc1Cl)N1Cc2cn(S(=O)(=O)c3cnc4occc4c3)nc2C1 [Compound 86, (2S)-2-(2-chlorophenyl)-1-(2-{furo[2,3-b]pyridine-5-sulfonyl}-2H,4H,5H,6H-pyrrolo[3,4-c]pyrazol-5-yl)-3-hydroxypropan-1-one]	1.8 nM	–
N[C@H](C(=O)N1Cc2cn(S(=O)(=O)c3ccc4ncsc4c3)nc2C1)c1ccccc1F [Compound 38, (2S)-2-amino-1-[2-(1,3-benzothiazole-6-sulfonyl)-2H,4H,5H,6H-pyrrolo[3,4-c]pyrazol-5-yl]-2-(2-fluorophenyl)ethan-1-one]	270 nM	–
O=C(N1Cc2cn(S(=O)(=O)c3ccc(OC(F)F)cc3)nc2C1)C1(c2ncccc2Cl)COC1 [Compound 75, 3-chloro-2-(3-{2-[4-(difluoromethoxy)benzenesulfonyl]-2H,4H,5H,6H-pyrrolo[3,4-c]pyrazole-5-carbonyl}oxetan-3-yl)pyridine]	4.4 nM	–
O=C(N1Cc2cn(S(=O)(=O)c3ccc4ncsc4c3)nc2C1)[C@@]1(c2ccccc2)CCCN1 (single isomer, unassigned) [Compound 61, 6-({5-[(2S)-2-phenylpyrrolidine-2-carbonyl]-2H,4H,5H,6H-pyrrolo[3,4-c]pyrazol-2-yl}sulfonyl)-1,3-benzothiazole or 6-({5-[(2R)-2-phenylpyrrolidine-2-carbonyl]-2H,4H,5H,6H-pyrrolo[3,4-c]pyrazol-2-yl}sulfonyl)-1,3-benzothiazole]	452 nM	48%
O=C([C@H](CO)c1ccccc1F)N1Cc2cn(S(=O)(=O)c3ccc4occc4c3)nc2C1 [Compound 84, (2S)-1-[2-(1-benzofuran-5-sulfonyl)-2H,4H,5H,6H-pyrrolo[3,4-c]pyrazol-5-yl]-2-(2-fluorophenyl)-3-hydroxypropan-1-one]	4.5 nM	–
N[C@@H](C(=O)N1Cc2cn(S(=O)(=O)c3ccc4ncsc4c3)nc2C1)c1ccc(F)cc1 [Compound 28, (2R)-2-amino-1-[2-(1,3-benzothiazole-6-sulfonyl)-2H,4H,5H,6H-pyrrolo[3,4-c]pyrazol-5-yl]-2-(4-fluorophenyl)ethan-1-one]	13 nM	–
C[C@@H](O)[C@@H](C(=O)N1Cc2cn(S(=O)(=O)c3cnc4c(c3)OCCO4)nc2C1)c1ccccc1Cl (single isomer, unassigned) [Compound 70]	15 nM	80%
O=C([C@H](CO)c1ccccc1)N1Cc2cn(S(=O)(=O)c3ccc(C4CC4)nc3)nc2C1 [Compound 101, (2S)-1-{2-[(6-cyclopropylpyridin-3-yl)sulfonyl]-2H,4H,5H,6H-pyrrolo[3,4-c]pyrazol-5-yl}-3-hydroxy-2-phenylpropan-1-one]	41 nM	–
N[C@@H](C(=O)N1Cc2cn(S(=O)(=O)c3ccc4occc4c3)nc2C1)c1ccccc1F [Compound 64, (2R)-2-amino-1-[2-(1-benzofuran-5-sulfonyl)-2H,4H,5H,6H-pyrrolo[3,4-c]pyrazol-5-yl]-2-(2-fluorophenyl)ethan-1-one]	3.4 nM	–
